Data published in patent publication US5707966A, “Antithrombotic agents” (Eli Lilly and Company, priority 1995, dated 1998).
Structures can show the parent of a compound that is named as a salt. Where two headings read alike, the source gives them in different places.

Columns and labels:
Assay type in all cases: biochemical
Bovine trypsin = target: T1, Bovine trypsin (Bos taurus, UniProt P00760); assay: Kass with trypsin, chromogenic substrate; details: substrate N-Benzoyl-Phe-Val-Arg-p-nitroanilide
T1 construct: Bovine trypsin is purchased; purchased Worthington Biochemicals, Freehold, N.J
T1 sequence (P00760 24-246): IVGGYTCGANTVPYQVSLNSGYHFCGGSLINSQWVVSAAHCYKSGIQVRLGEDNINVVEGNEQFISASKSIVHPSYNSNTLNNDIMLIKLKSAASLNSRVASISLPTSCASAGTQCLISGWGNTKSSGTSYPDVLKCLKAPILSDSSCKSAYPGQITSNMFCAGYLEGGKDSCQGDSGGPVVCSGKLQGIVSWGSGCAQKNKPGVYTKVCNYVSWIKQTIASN

Human plasma [1] = assay: Human plasma anticoagulation, thrombin time (TT); details: concentration required to double the thrombin time, linear extrapolation
How it was run: (§1)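 Prolongation of human plasma clotting was measured for PT (thromboplastin reagent), APTT (Actin, 120 s, then 0.02M CaCl2) and TT (bovine thrombin, 10 NIH units/mL). Concentration needed for a doubled time was estimated by linear extrapolation.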

Human plasmin = target: T2, Human plasmin (Homo sapiens, UniProt P00747); assay: Kass with plasmin, chromogenic substrate; details: substrate H-D-Val-Leu-Lys-p-nitroanilide
T2 construct: Human plasmin is purchased; purchased Boehringer Mannheim, Indianapolis, Ind

Human plasma [2] = assay: Human plasma anticoagulation, activated partial thromboplastin time (APTT); details: concentration required to double the APTT, linear extrapolation
How it was run: as §1

Human Thrombin = Human Thrombin (Homo sapiens, UniProt P00734); assay: Inhibition of amidase activity of thrombin (Kass)
factor Xa = target: T3, factor Xa (Homo sapiens, UniProt P00742); assay: Kass with factor Xa, chromogenic substrate; details: substrate N-Benzoyl-Ile-Glu-Gly-Arg-p-nitroanilide
T3 construct: Human factors X, Xa, IXa, XIa, and XIIa are purchased; purchased Enzyme Research Laboratories, South Bend, Ind

t-PA = target: T4, t-PA (Homo sapiens, UniProt P00750); assay: Kass with t-PA, chromogenic substrate; details: substrate H-D-Ile-Pro-Arg-p-nitroanilide
T4 construct: purchased American Diagnostica, Greenwich, Conn
Protocol: By substantially following the procedures described above for human thrombin, and using other human blood coagulation system serine proteases and proteases of the fibrinolytic system with the appropriate chromogenic substrates, identified below, selectivity of the compounds of the present invention with respect to the coagulation factor serine proteases and with respect to the fibrinolytic system serine proteases are evaluated as well as their substantial lack of interference with serine proteases of the fibrinolytic system. Thrombin inhibitors preferably should spare fibrinolysis induced by urokinase, tissue plasminogen activator (t-PA) and streptokinase. This would be important to the therapeutic use of such agents as an adjunct to streptokinase, t-PA or urokinase thrombolytic therapy and to the use of such agents as an endogenous fibrinolysis-sparing (with respect to t-PA and urokinase) antithrombotic agent. In addition to the lack of interference with the amidase activity of the fibrinolytic proteases, such fibrinolytic system sparing can be studied by the use of human plasma clots and their lysis by the respective fibrinolytic plasminogen activators.
Human plasmin is purchased from Boehringer Mannheim, Indianapolis, Ind.; nt-PA is purchased as single chain activity reference from American Diagnostica, Greenwich, Conn. modified-t-PA6 (mt-PA6) is prepared at Eli Lilly and Company by procedure known in the art (See, Burck, et al., J. Biol. Chem., 265, […] (1990). Plasmin chromogenic substrate H-D-Val-Leu-Lys-p-nitroanilide and tissue plasminogen activator (t-PA) substrate H-D-Ile-Pro-Arg-p-nitroanilide are purchased from Kabi Vitrum, Stockholm, Sweden.

Human plasma [3] = assay: Human plasma anticoagulation, prothrombin time (PT); details: concentration required to double the PT, linear extrapolation
How it was run: as §1

[4] = mean over a range of concentrations, […]

T4 sequence (P00750 36-562): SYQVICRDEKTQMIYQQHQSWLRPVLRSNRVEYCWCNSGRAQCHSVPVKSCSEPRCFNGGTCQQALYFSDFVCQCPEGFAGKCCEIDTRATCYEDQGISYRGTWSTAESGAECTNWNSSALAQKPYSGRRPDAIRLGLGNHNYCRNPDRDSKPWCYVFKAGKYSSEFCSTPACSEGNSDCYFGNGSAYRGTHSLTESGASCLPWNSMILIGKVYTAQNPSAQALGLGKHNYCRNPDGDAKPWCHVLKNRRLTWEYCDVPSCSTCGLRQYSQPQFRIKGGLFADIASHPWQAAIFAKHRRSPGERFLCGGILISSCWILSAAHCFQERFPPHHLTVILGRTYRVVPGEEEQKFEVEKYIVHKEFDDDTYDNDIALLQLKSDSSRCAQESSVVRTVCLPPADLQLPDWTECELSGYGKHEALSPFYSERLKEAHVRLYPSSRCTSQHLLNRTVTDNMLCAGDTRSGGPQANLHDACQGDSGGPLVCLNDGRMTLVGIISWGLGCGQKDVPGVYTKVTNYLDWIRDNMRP
T2 sequence (P00747 97-810): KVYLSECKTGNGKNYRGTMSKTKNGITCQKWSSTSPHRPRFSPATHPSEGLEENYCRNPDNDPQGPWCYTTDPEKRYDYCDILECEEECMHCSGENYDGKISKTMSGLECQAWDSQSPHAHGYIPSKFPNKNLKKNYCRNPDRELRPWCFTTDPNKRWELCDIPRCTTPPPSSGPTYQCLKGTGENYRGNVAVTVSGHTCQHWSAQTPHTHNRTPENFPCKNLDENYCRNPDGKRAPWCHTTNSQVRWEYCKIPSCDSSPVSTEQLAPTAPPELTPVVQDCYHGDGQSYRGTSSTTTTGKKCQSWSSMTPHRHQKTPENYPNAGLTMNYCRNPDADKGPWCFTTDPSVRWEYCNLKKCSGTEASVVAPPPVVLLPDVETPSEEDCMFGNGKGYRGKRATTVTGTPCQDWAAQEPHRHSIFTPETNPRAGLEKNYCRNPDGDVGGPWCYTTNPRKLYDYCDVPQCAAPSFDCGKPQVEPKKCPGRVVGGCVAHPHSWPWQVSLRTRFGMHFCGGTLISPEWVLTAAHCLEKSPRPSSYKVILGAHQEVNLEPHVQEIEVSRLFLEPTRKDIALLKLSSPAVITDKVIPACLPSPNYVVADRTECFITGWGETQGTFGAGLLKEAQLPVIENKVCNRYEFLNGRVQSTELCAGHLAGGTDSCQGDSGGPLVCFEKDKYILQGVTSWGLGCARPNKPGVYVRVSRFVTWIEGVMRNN
T2 sequence (P00747 97-580 partner limits assumed): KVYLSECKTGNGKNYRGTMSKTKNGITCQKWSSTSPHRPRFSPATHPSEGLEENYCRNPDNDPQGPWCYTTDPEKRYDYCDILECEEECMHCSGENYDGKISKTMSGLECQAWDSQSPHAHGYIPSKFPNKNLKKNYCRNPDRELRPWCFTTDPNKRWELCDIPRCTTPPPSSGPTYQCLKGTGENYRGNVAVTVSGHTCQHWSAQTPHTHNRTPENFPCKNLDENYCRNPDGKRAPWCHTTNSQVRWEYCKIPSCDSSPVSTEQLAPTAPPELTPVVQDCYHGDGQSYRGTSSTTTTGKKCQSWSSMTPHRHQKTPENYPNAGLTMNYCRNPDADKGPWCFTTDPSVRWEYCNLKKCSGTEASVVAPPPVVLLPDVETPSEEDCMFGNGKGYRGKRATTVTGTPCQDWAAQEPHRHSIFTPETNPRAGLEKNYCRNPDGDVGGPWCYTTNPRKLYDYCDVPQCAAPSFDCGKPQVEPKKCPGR
T3 sequence (P00742 235-488 limits assumed): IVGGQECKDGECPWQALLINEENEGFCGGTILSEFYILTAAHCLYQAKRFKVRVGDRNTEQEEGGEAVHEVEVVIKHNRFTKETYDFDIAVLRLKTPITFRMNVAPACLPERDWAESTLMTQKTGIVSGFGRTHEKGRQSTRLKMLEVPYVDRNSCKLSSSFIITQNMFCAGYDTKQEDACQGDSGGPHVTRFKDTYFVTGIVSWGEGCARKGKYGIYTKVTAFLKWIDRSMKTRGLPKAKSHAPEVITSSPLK
T3 sequence (P00742 41-179 partner limits assumed): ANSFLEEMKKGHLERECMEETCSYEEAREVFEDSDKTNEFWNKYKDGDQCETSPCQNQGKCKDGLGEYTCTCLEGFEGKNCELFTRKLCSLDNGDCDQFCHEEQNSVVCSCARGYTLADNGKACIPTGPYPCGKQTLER

Structure (SMILES)	Kass Trypsin (Bovine trypsin)	Human Plasma Anticoagulation 2× Clotting time TT (Human plasma [1])	Kass Plasmin (Human plasmin)	Human Plasma Anticoagulation 2× Clotting time APTT (Human plasma [2])	Kass Human Thrombin (Human Thrombin; [4])	Kass Xa (factor Xa)	Kass t-PA (t-PA)	Human Plasma Anticoagulation 2× Clotting time PT (Human plasma [3])	Kass Human Thrombin (Human Thrombin)
N=C(N)c1cccc(CCCNC(=O)[C@@H]2CCCN2C(=O)[C@@H]2NCC[C@@H]3CCCC[C@@H]32)c1 [Example 33, 1-Piq-Pro-m-NHCH2 CH2 CH2 --C6 H4 C(=NH)NH2.HCl]	0.02 × 10^6 (L/mole)	18,900 ng/mL	< 0.001 × 10^6 (L/mole)	59,300 ng/mL	0.04 × 10^6 (L/mole)	0.04 × 10^6 (L/mole)	< 0.001 × 10^6 (L/mole)	70,900 ng/mL	
CCS(=O)(=O)N[C@H](Cc1ccccc1)C(=O)N1CCC[C@H]1C(=O)NCCc1ccc(NC(=N)N)cc1 [Example 35, EtSO2 -D-Phe-Pro-p-NHCH2 CH2 C6 H4 CNH(NH)NH2.HCl]	0.04 × 10^6 (L/mole)	4,500 ng/mL	< 0.001 × 10^6 (L/mole)	50,400 ng/mL	0.09 × 10^6 (L/mole)	< 0.001 × 10^6 (L/mole)	< 0.001 × 10^6 (L/mole)	78,400 ng/mL	
CCS(=O)(=O)N[C@H](Cc1ccccc1)C(=O)N1CCC[C@H]1C(=O)NCc1cccc(NC(=N)N)c1 [Example 36, EtSO2 -D-Phe-Pro-m-NHCH2 C6 H4 NHC(NH)NH2.HCl]	0.01 × 10^6 (L/mole)	7,700 ng/mL	< 0.001 × 10^6 (L/mole)	> 91,000 ng/mL	0.06 × 10^6 (L/mole)	< 0.001 × 10^6 (L/mole)	< 0.001 × 10^6 (L/mole)	> 91,000 ng/mL	
N=C(N)c1ccc(CNC(=O)[C@@H]2CCCN2C(=O)[C@@H](CC2CCCCC2)NCC(=O)O)cc1 [Example 48, HOOCCH2 -D-Cha-Pro-p-NHCH2 C6 H4 C(NH)NH2.HCl]	250 × 10^6 (L/mole)	2 ng/mL	0.43 × 10^6 (L/mole)	33 ng/mL	4,100 × 10^6 (L/mole)	5.5 × 10^6 (L/mole)	0.05 × 10^6 (L/mole)	59 ng/mL	
O=C(O)CN[C@H](CC1CCCCC1)C(=O)N1CCC[C@H]1C(=O)NCC1CCNCC1 [Example 53, HO2 CCH2 -D-Cha-Pro-4-NHCH2 -piperidine.HCl]	0.1 × 10^6 (L/mole)	1,400 ng/mL	< 0.001 × 10^6 (L/mole)	33,800 ng/mL	0.36 × 10^6 (L/mole)	< 0.001 × 10^6 (L/mole)	< 0.001 × 10^6 (L/mole)	34,500 ng/mL	
O=C(O)CN[C@H](CC1CCCCC1)C(=O)N1CCC[C@H]1C(=O)NCCC1CCNCC1 [Example 54, HO2 CCH2 -D-Cha-Pro-4-NHCH2 CH2 -piperidine.HCl]	0.52 × 10^6 (L/mole)	140 ng/mL	0.01 × 10^6 (L/mole)	3,300 ng/mL	2.8 × 10^6 (L/mole)	< 0.001 × 10^6 (L/mole)	< 0.001 × 10^6 (L/mole)	2,200 ng/mL	
O=C(O)CN[C@H](CC1CCCCC1)C(=O)N1CCC[C@H]1C(=O)NCCCC1CCNCC1 [Example 55, HO2 CCH2 -D-Cha-Pro-4-NHCH2 CH2 CH2 -piperidine.HCl]	0.01 × 10^6 (L/mole)	55,800 ng/mL	< 0.001 × 10^6 (L/mole)	> 91,000 ng/mL	0.01 × 10^6 (L/mole)	< 0.001 × 10^6 (L/mole)	< 0.001 × 10^6 (L/mole)	> 91,000 ng/mL	
N=C(N)N1CCC(CNC(=O)[C@@H]2CCCN2C(=O)[C@@H](CC2CCCCC2)NCC(=O)O)CC1 [Example 56, HO2 CCH2 -D-Cha-Pro-4-NHCH2 -1-amidinopiperidine.HCl]	3.6 × 10^6 (L/mole)	5 ng/mL	0.01 × 10^6 (L/mole)	160 ng/mL	490 × 10^6 (L/mole)	0.20 × 10^6 (L/mole)	< 0.001 × 10^6 (L/mole)	200 ng/mL	
N=C(N)N1CCC(CCNC(=O)[C@@H]2CCCN2C(=O)[C@@H](CC2CCCCC2)NCC(=O)O)CC1 [Example 57, HO2 CCH2 -D-Cha-Pro-4-NHCH2 CH2 -1-amidinopiperidine.HCl]	0.24 × 10^6 (L/mole)	14 ng/mL	0.01 × 10^6 (L/mole)	360 ng/mL		0.01 × 10^6 (L/mole)	< 0.001 × 10^6 (L/mole)	340 ng/mL	39
O=C(O)CN[C@H](CC1CCCCC1)C(=O)N1CCC[C@H]1C(=O)NCC1=CCNCC1 [Example 58, HO2 CCH2 -D-Cha-Pro-4-NHCH2 -3,4-dehydro-piperidine.HCl]	0.40 × 10^6 (L/mole)	710 ng/mL	< 0.001 × 10^6 (L/mole)	14,300 ng/mL	0.60 × 10^6 (L/mole)	< 0.001 × 10^6 (L/mole)	< 0.001 × 10^6 (L/mole)	11,400 ng/mL	
O=C(O)CN[C@H](CC1CCCCC1)C(=O)N1CCC[C@H]1C(=O)NCCC1=CCNCC1 [Example 59, HO2 CCH2 -D-Cha-Pro-4-NHCH2 CH2 -3,4-dehydro-piperidine.HCl]	0.21 × 10^6 (L/mole)	420 ng/mL	< 0.001 × 10^6 (L/mole)	5,500 ng/mL	1.10 × 10^6 (L/mole)	< 0.001 × 10^6 (L/mole)	< 0.001 × 10^6 (L/mole)	7,000 ng/mL	
O=C(O)CN[C@H](CC1CCCCC1)C(=O)N1CCC[C@H]1C(=O)NCCCC1=CCNCC1 [Example 60, HO2 CCH2 -D-Cha-Pro-4-NHCH2 CH2 CH2 -3,4-dehydro-piperidine.HCl]	0.03 × 10^6 (L/mole)	3,200 ng/mL	< 0.001 × 10^6 (L/mole)	22,200 ng/mL	0.24 × 10^6 (L/mole)	< 0.001 × 10^6 (L/mole)	< 0.001 × 10^6 (L/mole)	77,700 ng/mL	
N=C(N)NCCCCNC(=O)[C@@H]1CCCN1C(=O)[C@@H]1NCC[C@H]2CCCC[C@H]21 [Example 61, N-[4-[(aminoiminomethyl)amino]butyl]-1-[[(4aR,8aR)-decahydro-1(R)-isoquinolinyl]carbonyl]-1-prolinamide trihydrochloride]	1.0 × 10^6 (L/mole)	45 ng/mL	0.004 × 10^6 (L/mole)	679 ng/mL	63 × 10^6 (L/mole)	0.03 × 10^6 (L/mole)	0.008 × 10^6 (L/mole)	756 ng/mL	
